Experimental data taken from patent US20130217122A1, “Expansion of Interferon-Gamma-Producing T-Cells Using Glypican-3 Peptide Library” (The Trustees of the University of Pennsylvania, priority 2012, published 2013).

B1: Glypican-3 169-177 (ELFDSLFPV) (peptide)
peptide: ELFDSLFPV
notes: Synthetic 9 mer of human glypican-3 (NP-004475); also called GPC3 169-177; GPC3169-177
B2: Glypican-3 563-572 (KLLTSMAISV) (peptide)
peptide: KLLTSMAISV
notes: Synthetic 10 mer of human glypican-3 (NP-004475); also called GPC3 563-572; GPC3563-572
B3: Glypican-3 44-52 (RLQPGLKWV) (peptide)
peptide: RLQPGLKWV
notes: Synthetic 9 mer of human glypican-3 (NP-004475); also called GPC3 44-52; GPC344-52
B4: Glypican-3 142-151 (FEFVGEFFTD) (peptide)
peptide: FEFVGEFFTD
notes: Synthetic 10 mer of human glypican-3 (NP-004475); also called GPC3 142-151; GPC3142-151

Legend:
CD8+ T-cells [1] = assay type: cell-based, human
HLA-A2.1 = HLA-A2.1 (Homo sapiens, UniProt P04439, D140Y/D185E/D98H/E176V/E277Q/G131W/G231S/I119V/I121R/I166T/I218V/L300P/L318F/N151K/N90K/P208A/P217A/Q86G/Q94H/R138H/R169H/T345S); test: T2 binding assay; settings: 9-10 mer epitopes
CD8+ T-cells [2] = assay type: cell-based, human; remark: listed apart in the source
[3] = target: T1, human HLA-A2.1 on T2 cells (human); test: T2 binding assay (HLA-A2 on T2 cells, flow cytometry)
T1 construct: whole, on cells; Empty or peptide-receptive HLA-A2.1 on TAP-deficient T2 cells; also called HLA-A*0201; class I MHC molecules

| Molecule | Median pentamer+/CD8+ cells (range) (CD8+ T-cells [1]) | No. with pentamer + cluster (CD8+ T-cells [1]) | No. with pentamer + cluster (%) (CD8+ T-cells [1]) | binding affinity of optimum HLA-A2-binding epitopes (HLA-A2.1) | PD-1 expression in pentamer-positive versus pentamer-negative CD8+ T-cells (CD8+ T-cells [1]) | IFNγ secretion by expanded cells restimulated with cognate antigens (CD8+ T-cells [2]) | expansion of pentamer-specific CD8+ T-cells (CD8+ T-cells [2]) | binding result [3] |
| --- | --- | --- | --- | --- | --- | --- | --- | --- |
| GILGFTFVL [Flu matrix, reference compound] | 0.40 (0.30-1.30) % | 5 (56) | 5 (56) % | – | – | – | – | – |
| CINGVCWTV [NS3 1073, reference compound] | 0.07 (0.03-0.10) % | 2 (29) | 2 (29) % | – | – | – | – | – |
| SLTPQAFEFV [GPC3 136-145, peptide and HLA-A2.1 pentamer loaded with it] | 0.70 (0.05-1.30) % | 4 (50) | 4 (50) % | strong binding affinity | – | – | – | – |
| FEFVGEFFTD [GPC3 142-151, peptide and HLA-A2.1 pentamer loaded with it] | 0.47 (0.03-0.90) % | 2 (22) | 2 (22) % | strong binding affinity | – | – | – | – |
| LMLGEFLKL [SurlM2, reference compound] | 0.20 (0.20-0.20) % | 1 (11) | 1 (11) % | – | – | – | – | – |
| KLLTSMAISV [GPC3 563-572, peptide and HLA-A2.1 pentamer loaded with it] | 0.45 (0.05-1.60) % | 4 (44) | 4 (44) % | strong binding affinity | strong trend | – | – | – |
| ELFDSLFPV [GPC3 169-178, peptide and HLA-A2.1 pentamer loaded with it] | 1.00 (0.20-1.60) % | 5 (63) | 5 (63) % | strong binding affinity | – | – | – | – |
| RLQPGLKWV [GPC3 44-52, peptide and HLA-A2.1 pentamer loaded with it] | 0.20 (0.10-0.30) % | 3 (33) | 3 (33) % | strong binding affinity | significantly greater | minimal-to-absent | readily detectable expansion | – |
| B1 | – | – | – | – | – | – | – | binds |
| B2 | – | – | – | – | – | – | – | binds |
| B3 | – | – | – | – | – | – | – | binds |
| B4 | – | – | – | – | – | – | – | binds |
